Measured values from patent publication US8003660B2, “Modulators of muscarinic receptors” (Vertex Pharmaceuticals Incorporated, priority 2006, dated 2011).

Columns and labels:
Assay type in all cases: cell-based
M1 muscarinic receptor = molecular target: T1, M1 muscarinic receptor (Homo sapiens, UniProt P11229); test: Functional mobilization of intracellular calcium (FLIPR) in CHO cells expressing M1; conditions: for EC50: CHO cells expressing M1, FLIPR calcium; for Emax: CHO, 100% = maximum response obtained with the Carbachol control, read-out: M1 Efficacy
T1 construct: expressed in transfected cells; host or cells: CHO (M1-CHO)
T1 sequence (P11229 1-460): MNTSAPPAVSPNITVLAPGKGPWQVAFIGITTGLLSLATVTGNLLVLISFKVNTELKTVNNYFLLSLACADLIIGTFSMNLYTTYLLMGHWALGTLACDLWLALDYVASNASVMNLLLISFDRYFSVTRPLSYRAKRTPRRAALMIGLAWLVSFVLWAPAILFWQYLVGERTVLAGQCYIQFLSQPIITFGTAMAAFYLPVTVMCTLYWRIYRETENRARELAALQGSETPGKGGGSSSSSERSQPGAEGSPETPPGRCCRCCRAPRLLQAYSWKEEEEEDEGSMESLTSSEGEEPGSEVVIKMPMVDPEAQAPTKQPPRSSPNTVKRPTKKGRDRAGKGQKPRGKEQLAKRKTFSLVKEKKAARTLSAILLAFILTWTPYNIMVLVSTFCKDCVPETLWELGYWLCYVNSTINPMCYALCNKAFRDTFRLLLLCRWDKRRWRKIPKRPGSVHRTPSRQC
Procedure, shortened: (§1)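 Calcium flux is read on FLIPR over 60 sec at 488/540 nm in muscarinic-receptor CHO lines. Antagonist mode adds carbachol at EC80 after 15 min compound preincubation or with simultaneous co-application. Agonist mode adds compound alone. Cells carry Fluo-3 or Calcium 3 dye in probenecid-containing pH 7.4 buffer, 0.5% DMSO final.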

M2 muscarinic receptor = molecular target: T2, M2 muscarinic receptor (Homo sapiens, UniProt P08172); test: Functional mobilization of intracellular calcium (FLIPR) in CHO cells expressing M2; conditions: for EC50: CHO cells expressing M2, FLIPR calcium; for Emax: CHO, 100% = maximum response obtained with the Carbachol control, read-out: M2 Efficacy
T2 construct: expressed in transfected cells; host or cells: CHO (M2-CHO)
T2 sequence (P08172 1-466): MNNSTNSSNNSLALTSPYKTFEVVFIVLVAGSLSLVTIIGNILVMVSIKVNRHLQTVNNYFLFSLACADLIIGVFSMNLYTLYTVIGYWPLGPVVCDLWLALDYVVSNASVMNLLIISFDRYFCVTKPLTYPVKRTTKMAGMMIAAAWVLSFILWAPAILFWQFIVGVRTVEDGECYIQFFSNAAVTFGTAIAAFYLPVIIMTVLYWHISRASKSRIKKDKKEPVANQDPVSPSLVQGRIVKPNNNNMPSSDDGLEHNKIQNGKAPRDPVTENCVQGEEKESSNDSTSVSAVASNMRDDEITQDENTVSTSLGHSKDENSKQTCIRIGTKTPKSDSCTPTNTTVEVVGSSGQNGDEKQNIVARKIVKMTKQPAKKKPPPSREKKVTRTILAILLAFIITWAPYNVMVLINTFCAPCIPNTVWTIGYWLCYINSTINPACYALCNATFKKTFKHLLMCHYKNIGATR
Procedure, shortened: as §1

M3 muscarinic receptor = molecular target: T3, M3 muscarinic receptor (Homo sapiens, UniProt P20309); test: Functional mobilization of intracellular calcium (FLIPR) in CHO cells expressing M3; conditions: for EC50: CHO cells expressing M3, FLIPR calcium; for Emax: CHO, 100% = maximum response obtained with the Carbachol control, read-out: M3 Efficacy
T3 construct: expressed in transfected cells; host or cells: CHO (M3-CHO)
T3 sequence (P20309 whole entry): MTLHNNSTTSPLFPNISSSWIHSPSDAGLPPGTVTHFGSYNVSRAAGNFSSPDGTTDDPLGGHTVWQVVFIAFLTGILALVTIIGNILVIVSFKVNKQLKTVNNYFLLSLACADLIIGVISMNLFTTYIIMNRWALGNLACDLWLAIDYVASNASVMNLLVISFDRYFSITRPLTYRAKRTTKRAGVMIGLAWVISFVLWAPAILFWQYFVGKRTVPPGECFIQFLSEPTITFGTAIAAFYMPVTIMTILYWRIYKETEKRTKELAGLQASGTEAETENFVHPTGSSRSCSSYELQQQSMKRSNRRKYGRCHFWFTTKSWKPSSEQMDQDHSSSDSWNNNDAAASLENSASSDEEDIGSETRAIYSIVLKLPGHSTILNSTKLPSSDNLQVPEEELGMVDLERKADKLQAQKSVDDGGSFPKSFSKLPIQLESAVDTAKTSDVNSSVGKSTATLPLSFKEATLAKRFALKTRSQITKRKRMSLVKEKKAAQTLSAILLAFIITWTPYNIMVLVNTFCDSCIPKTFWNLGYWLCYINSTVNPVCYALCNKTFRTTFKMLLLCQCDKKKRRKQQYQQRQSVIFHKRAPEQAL
Procedure, shortened: as §1

M4 muscarinic receptor = molecular target: T4, M4 muscarinic receptor (Homo sapiens, UniProt P08173); test: Functional mobilization of intracellular calcium (FLIPR) in CHO cells expressing M4; conditions: for EC50: CHO cells expressing M4, FLIPR calcium; for Emax: CHO, 100% = maximum response obtained with the Carbachol control, read-out: M4 Efficacy
T4 construct: expressed in transfected cells; host or cells: CHO (M4-CHO)
T4 sequence (P08173 1-479): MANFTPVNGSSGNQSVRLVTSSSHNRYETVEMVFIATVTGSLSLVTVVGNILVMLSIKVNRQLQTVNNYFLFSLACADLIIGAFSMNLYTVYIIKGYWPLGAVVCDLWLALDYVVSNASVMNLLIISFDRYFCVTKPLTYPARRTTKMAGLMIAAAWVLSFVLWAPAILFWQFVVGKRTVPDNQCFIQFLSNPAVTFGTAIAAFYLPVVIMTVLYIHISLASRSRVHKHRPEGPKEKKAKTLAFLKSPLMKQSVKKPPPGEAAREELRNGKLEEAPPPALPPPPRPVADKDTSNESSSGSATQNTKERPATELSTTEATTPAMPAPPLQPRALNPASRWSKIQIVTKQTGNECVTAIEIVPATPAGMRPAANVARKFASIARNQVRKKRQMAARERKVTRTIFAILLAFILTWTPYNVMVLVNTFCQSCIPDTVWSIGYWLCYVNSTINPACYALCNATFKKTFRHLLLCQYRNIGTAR
Procedure, shortened: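 Read-out: FLIPR fluorescence (ex 488, em 540 nm) over 60 s. Recombinant CHO lines are dye-loaded (Fluo-3 AM or Calcium 3) with 1 mM probenecid. For antagonist mode, compound is pre-incubated 15 min, or co-applied, then carbachol is added at 3× EC80 per subtype.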

Row | SMILES | EC50 (M1 muscarinic receptor) [nM] | Emax (M1 muscarinic receptor) [%] | EC50 (M2 muscarinic receptor) [µM] | Emax (M2 muscarinic receptor) [%] | EC50 (M3 muscarinic receptor) [µM] | Emax (M3 muscarinic receptor) [%] | EC50 (M4 muscarinic receptor) [nM] | Emax (M4 muscarinic receptor) [%]
1 | CC(C)(C)CCN1CCC2(CC[C@H](NC(=O)CC3CCOCC3)c3ccccc32)CC1 [compound 135] | < 2000 | 25 to 100 | > 5 | < 25 | > 5 | < 25 | < 2000 | 25 to 100
2 | CCN(C(=O)Cc1cccnc1)[C@H]1CCC2(CCN(CCC(C)(C)C)CC2)c2ccccc21 [compound 136] | 2000 to 5000 | 25 to 100 | 2 to 5 | < 25 | > 5 | < 25 | < 2000 | 25 to 100
3 | C[C@@H](C(=O)N[C@H]1CCC2(CCN(CCC(C)(C)C)CC2)c2ccccc21)N1CCCC1=O [compound 137] | < 2000 | 25 to 100 | > 5 | < 25 | > 5 | < 25 | < 2000 | 25 to 100
4 | CC(C)(C)CCN1CCC2(CC[C@H](NC(=O)CCN3CCCC3=O)c3ccc(F)cc32)CC1 [compound 138] | < 2000 | 25 to 100 | < 2 | 25 to 100 | > 5 | < 25 | < 2000 | 25 to 100
5 | C[C@@H](O)CC(=O)N[C@@H]1CCC2(CCN(CCC(C)(C)C)CC2)c2ccccc21 [compound 139] | 2000 to 5000 | < 25 | > 5 | < 25 | > 5 | < 25 | < 2000 | 25 to 100
6 | CCOCC(=O)N(CC)[C@H]1CCC2(CCN(CCC(C)(C)C)CC2)c2ccccc21 [compound 140] | 2000 to 5000 | 25 to 100 | > 5 | < 25 | > 5 | < 25 | < 2000 | 25 to 100
7 | CC#CCN(C(C)=O)[C@H]1CCC2(CCN(CCC(C)C)CC2)c2ccccc21 [compound 141] | < 2000 | 25 to 100 | > 5 | < 25 | > 5 | < 25 | < 2000 | 25 to 100
8 | CC(C)CCN1CCC2(CC[C@H](N3C(=O)CCC3=O)c3ccccc32)CC1 [compound 142] | 2000 to 5000 | 25 to 100 | > 5 | < 25 | > 5 | < 25 | > 5000 | < 25
9 | CC(=O)N1CCCC(C(=O)N[C@@H]2CCC3(CCN(CCC(C)(C)C)CC3)c3ccccc32)C1 (stereo partly shown) [compound 143] | 2000 to 5000 | 25 to 100 | > 5 | < 25 | > 5 | < 25 | < 2000 | 25 to 100
10 | CN1CC(C(=O)N[C@H]2CCC3(CCN(CCC(C)(C)C)CC3)c3ccccc32)CC1=O (stereo partly shown) [compound 144] | < 2000 | 25 to 100 | < 2 | 25 to 100 | > 5 | < 25 | < 2000 | 25 to 100
11 | CC(C)(C)CCN1CCC2(CC[C@H](NC(=O)CC3CCOCC3)c3ccc(F)cc32)CC1 [compound 145] | < 2000 | 25 to 100 | < 2 | < 25 | > 5 | < 25 | < 2000 | 25 to 100
12 | C[C@@H](C(=O)N[C@@H]1CCC2(CCN(CCC(C)(C)C)CC2)c2ccccc21)N1CCCC1=O [compound 146] | > 5000 | 25 to 100 | > 5 | < 25 | > 5 | < 25 | < 2000 | 25 to 100
13 | COCCC(=O)N[C@H]1CCC2(CCN(CCC(C)(C)C)CC2)c2ccccc21 [compound 147] | < 2000 | 25 to 100 | < 2 | 25 to 100 | > 5 | < 25 | < 2000 | 25 to 100
14 | CC(C)CCN1CCC2(CC[C@H](NC(=O)N(C)C)c3ccccc32)CC1 [compound 148] | > 5000 | < 25 | > 5 | < 25 | > 5 | < 25 | 2000 to 5000 | 25 to 100
15 | CC(=O)N1CCCC[C@@H]1C(=O)N[C@@H]1CCC2(CCN(CCC(C)(C)C)CC2)c2cc(F)ccc21 [compound 149] | 2000 to 5000 | 25 to 100 | 2 to 5 | 25 to 100 | > 5 | < 25 | < 2000 | 25 to 100
16 | CC(=O)N[C@H]1CCC2(CCN(CC=C(C)C)CC2)c2ccccc21 [compound 150] | > 5000 | 25 to 100 | > 5 | < 25 | > 5 | < 25 | 2000 to 5000 | 25 to 100
17 | Cc1cc(C(=O)N[C@H]2CCC3(CCN(CCC(C)(C)C)CC3)c3ccccc32)nn1C [compound 151] | < 2000 | 25 to 100 | > 5 | < 25 | > 5 | < 25 | < 2000 | 25 to 100
